Assay results taken from the supplement of paper PMC10307832.

How the values were obtained:
Experiment in all cases: relative viability (nuclei count vs DMSO), 5 days (fraction); higher = more cells survive
[1] = compound: C1COCCN1C2=NC(=NC3=C2OC4=C3C=CC=N4)C5=CC(=CC=C5)NC(=O)C6=CN=C(C=C6)N + COc1cc2c(Oc3ccc(NC(=O)C4(C(=O)Nc5ccc(F)cc5)CC4)cc3F)ccnc2cc1OCCCN1CCOCC1 [Foretinib] (partner 0.25 µM)
In short: (§1)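 Relative viability equals treated-well nuclei counts divided by vehicle-well nuclei counts. Counts came from 4× images of lung cancer cell lines grown in 1536-well plates for 5 days after pin-tool dosing on the day after seeding. Dosing used one drug alone or a fixed anchor-drug dose plus five library-drug doses (not always all listed) in √10 steps, and values are medians of duplicate plates.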

Entinostat + Trametinib = compound: Nc1ccccc1NC(=O)c1ccc(CNC(=O)OCc2cccnc2)cc1 [Entinostat] + CC(=O)Nc1cccc(-n2c(=O)n(C3CC3)c(=O)c3c(Nc4ccc(I)cc4F)n(C)c(=O)c(C)c32)c1 [Trametinib] (partner 0.02 µM)
In short: as §1

SGI-1776 + Navitoclax = compound: CN1CCC(CNc2ccc3ncc(-c4cccc(OC(F)(F)F)c4)n3n2)CC1 [SGI-1776] + CC1(C)CCC(c2ccc(Cl)cc2)=C(CN2CCN(c3ccc(C(=O)NS(=O)(=O)c4ccc(N[C@H](CCN5CCOCC5)CSc5ccccc5)c(S(=O)(=O)C(F)(F)F)c4)cc3)CC2)C1 [Navitoclax] (partner 0.5 µM)
In short: as §1

SGI-1776 + Alpelisib = compound: CN1CCC(CNc2ccc3ncc(-c4cccc(OC(F)(F)F)c4)n3n2)CC1 [SGI-1776] + Cc1nc(NC(=O)N2CCC[C@H]2C(N)=O)sc1-c1ccnc(C(C)(C)C(F)(F)F)c1 [Alpelisib] (partner 2 µM)
In short: as §1

Cell Line	relative viability ([1]; first compound 0.02 µM)	relative viability ([1]; first compound 0.06325 µM)	relative viability ([1]; first compound 0.2 µM)	relative viability ([1]; first compound 0.6325 µM)	relative viability ([1]; first compound 2 µM)	relative viability (Entinostat + Trametinib; first compound 0.02 µM)	relative viability (Entinostat + Trametinib; first compound 0.06325 µM)	relative viability (Entinostat + Trametinib; first compound 0.2 µM)	relative viability (Entinostat + Trametinib; first compound 0.6325 µM)	relative viability (Entinostat + Trametinib; first compound 2 µM)	relative viability (SGI-1776 + Navitoclax; first compound 0.08 µM)	relative viability (SGI-1776 + Navitoclax; first compound 0.8 µM)	relative viability (SGI-1776 + Navitoclax; first compound 2.53 µM)	relative viability (SGI-1776 + Navitoclax; first compound 8 µM)	relative viability (SGI-1776 + Alpelisib; first compound 0.08 µM)	relative viability (SGI-1776 + Alpelisib; first compound 0.8 µM)	relative viability (SGI-1776 + Alpelisib; first compound 2.53 µM)	relative viability (SGI-1776 + Alpelisib; first compound 8 µM)
201T	1.31	1.05	1.1	1.1	1.09	0.746	0.72	0.684	0.716	0.545	1.19	1.24	1.23	1.17	1.02	1.03	1.08	0.999
A549	1.05	0.987	0.988	1.06	0.225						1.24	1.29	1.27	0.77	0.787	0.701	0.852	0.394
A-427	1.11	1.28	1.16	0.855	0.676	0.882	0.921	0.866	0.639	0.523	1.03	0.957	0.953	1.03	1.16	1.14	1.12	1.02
ABC-1	1.09	1.07	0.996	1.04	0.884										1.12	0.977	1.06	0.948
BEN	0.681	0.609	0.594	0.451	0.72	1.18	1.04	0.79	0.63	0.441	0.0663	0.049	0.0583	0.0494	0.957	1.01	0.896	0.699
CAL-12T	1.12	1.49	1.19	1.21	0.941	0.362	0.306	0.355	0.297	0.252	1.3	1.1	1.29	1.09	1.23	1.37	1.66	1.08
COR-L23	0.97	1.02	0.99	1.1	0.692	0.507	0.614	0.544	0.318	0.189	1.13	1.03	1.11	0.731	0.935	0.697	0.743	0.521
COR-L 105	0.915	1.28	0.764	0.969	0.777	0.475	0.45	0.45	0.413	0.406	0.799	0.86	1	0.546	1.13	1.05	1.03	0.759
Calu-6	1.12	0.912	0.987	0.851	0.648						0.922	0.909	0.856	0.626	1.01	0.955	1.23	0.628
ChaGo-K-1	0.971	1.04	0.955	0.832	0.582	0.948	0.933	0.897	0.785	0.64	0.849	1.23	0.624	0.716				
EBC-1	0.115	0.0996	0.111	0.102	0.0879						0.458	0.292	0.289	0.144	0.888	0.78	0.903	0.434
EKVX	0.97	1.01	0.773	0.751	0.339	0.364	0.344	0.261	0.252	0.227	1.03	0.907	0.999	0.888	0.885	0.933	0.869	0.72
EMC-BAC-2	0.991	1.07	1.01	0.902	0.766	0.868	0.713	0.578	0.489	0.383	1.23	1.22	1.16	1.1	0.741	0.703	0.802	0.723
EPLC-272H	0.648	0.776	0.66	0.542	0.476	0.351	0.342	0.319	0.27	0.182	1.15	1.15	1.25	0.969	0.943	0.952	1.16	0.804
H3255	0.985	0.97	0.865	0.754	0.718	0.681	0.57	0.528	0.402	0.295	0.525	0.46	0.543	0.193	0.65	0.747	0.611	0.38
HARA	0.953	1.11	1.09	0.882	0.528	0.903	0.983	0.696	0.647	0.48	1.15	1.17	1.16	1.16	1.01	0.935	0.803	0.678
HCC-15	1.05	1.15	1.06	0.947	0.677	0.392	0.323	0.245	0.221	0.161	0.707	0.728	0.599	0.475	0.912	0.836	0.895	0.71
HCC-44						1.07	0.895	0.81	0.735	0.625	0.935	0.909	1.08	0.928	0.88	0.876	0.733	0.571
HCC-78	0.466	0.553	0.587	0.531	0.425	0.706	0.662	0.505	0.377	0.253	0.816	0.766	0.812	0.66	0.37	0.333	0.315	0.248
